Experimental data taken from ChEMBL document CHEMBL5528044, “Exploring the Function of (+)-Naltrexone Precursors: Their Activity as TLR4 Antagonists and Potential in Treating Morphine Addiction” (J Med Chem, 2024).
Activity calls are given as the source filed them. The calls are words filed in the database; no cut-off is given here.

Assays:
[1] = target: T1, Toll-like receptor 4 (Mus musculus, UniProt Q9QUK6); test: Antagonist activity at TLR4 in mouse BV-2 cells assessed as inhibition of LPS-induced NO overproduction incubated for 24 hrs by 2,3-diaminonaphthalene reagent based microplate reader analysis; assay type: cell-based
T1 sequence (Q9QUK6 whole entry): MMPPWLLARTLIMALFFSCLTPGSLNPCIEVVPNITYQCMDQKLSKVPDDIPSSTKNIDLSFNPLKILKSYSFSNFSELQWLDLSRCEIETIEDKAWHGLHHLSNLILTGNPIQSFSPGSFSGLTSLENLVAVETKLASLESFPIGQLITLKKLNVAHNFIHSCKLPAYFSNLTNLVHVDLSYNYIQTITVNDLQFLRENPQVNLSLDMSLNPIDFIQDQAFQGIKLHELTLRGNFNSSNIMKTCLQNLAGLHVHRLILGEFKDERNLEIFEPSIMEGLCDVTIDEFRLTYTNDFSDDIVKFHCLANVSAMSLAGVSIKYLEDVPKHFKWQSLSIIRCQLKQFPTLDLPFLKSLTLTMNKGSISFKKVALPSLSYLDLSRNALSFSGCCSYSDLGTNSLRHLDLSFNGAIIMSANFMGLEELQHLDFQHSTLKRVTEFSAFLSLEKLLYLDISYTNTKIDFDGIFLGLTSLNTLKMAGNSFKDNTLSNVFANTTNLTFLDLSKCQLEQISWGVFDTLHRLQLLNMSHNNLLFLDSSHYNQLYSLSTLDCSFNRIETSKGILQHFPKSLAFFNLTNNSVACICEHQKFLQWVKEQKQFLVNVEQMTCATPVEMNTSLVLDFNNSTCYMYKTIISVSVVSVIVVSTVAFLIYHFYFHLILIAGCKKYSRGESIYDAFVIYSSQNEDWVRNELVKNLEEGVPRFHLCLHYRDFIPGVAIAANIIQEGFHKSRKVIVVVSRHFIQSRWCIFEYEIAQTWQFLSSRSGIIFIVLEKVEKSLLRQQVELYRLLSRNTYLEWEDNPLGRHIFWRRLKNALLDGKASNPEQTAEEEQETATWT

[2] = Half life in Balb/c mouse at 2 mg/kg,iv administration and measured upto 24 hrs by LC-MS/MS analysis; assay type: ADME, organism-based; settings: in vivo
[3] = AUC (0 to infinity) in Balb/c mouse at 2 mg/kg,iv administration and measured upto 24 hrs by LC-MS/MS analysis; assay type: ADME, organism-based; settings: in vivo
[4] = Cmax in Balb/c mouse at 20 mg/kg,po administration and measured upto 24 hrs by LC-MS/MS analysis; assay type: ADME, organism-based; settings: in vivo
[5] = Tmax in Balb/c mouse at 20 mg/kg,po administration and measured upto 24 hrs by LC-MS/MS analysis; assay type: ADME, organism-based; settings: in vivo
[6] = Half life in Balb/c mouse at 20 mg/kg,po administration and measured upto 24 hrs by LC-MS/MS analysis; assay type: ADME, organism-based; settings: in vivo
[7] = AUC (0 to infinity) in Balb/c mouse at 20 mg/kg,po administration and measured upto 24 hrs by LC-MS/MS analysis; assay type: ADME, organism-based; settings: in vivo
[8] = Cytotoxicity against mouse BV-2 cells incubated for 24 hrs by crystal violet staining based assay; assay type: toxicity, cell-based
[9] = target: T2, Toll-like receptor 4 (Mus musculus) (UniProt Q9QUK6); test: Antagonist activity at TLR4 in mouse BV-2 cells assessed as inhibition of LPS-induced NF-kappaB activation at 4 uM incubated for 24 hrs by dual-glo luciferase assay; assay type: cell-based; settings: filed as antagonist
T2 sequence (whole entry): T1 sequence (Q9QUK6 whole entry)

[10] = target: T2, Toll-like receptor 4 (Mus musculus); test: Antagonist activity at TLR4 signaling pathway in mouse BV-2 cells assessed as inhibition of LPS-induced MyD88 recruitment at 5 uM incubated for 1 hr by co-immunoprecipitation based Western blot analysis; assay type: cell-based
[11] = target: T2, Toll-like receptor 4 (Mus musculus); test: Antagonist activity at TLR4 signaling pathway in mouse BV-2 cells assessed as downregulation of LPS-induced IKKalpha phosphorylation at 5 uM incubated for 1 hr by Western blot analysis; assay type: cell-based; settings: filed as antagonist
[12] = target: T2, Toll-like receptor 4 (Mus musculus); test: Antagonist activity at TLR4 signaling pathway in mouse BV-2 cells assessed as downregulation of LPS-induced IKKbeta phosphorylation at 5 uM incubated for 1 hr by Western blot analysis; assay type: cell-based; settings: filed as antagonist
[13] = target: T2, Toll-like receptor 4 (Mus musculus); test: Antagonist activity at TLR4 signaling pathway in mouse BV-2 cells assessed as downregulation of LPS-induced ERK phosphorylation at 5 uM incubated for 1 hr by Western blot analysis; assay type: cell-based; settings: filed as antagonist
[14] = target: T2, Toll-like receptor 4 (Mus musculus); test: Antagonist activity at TLR4 signaling pathway in mouse BV-2 cells assessed as downregulation of LPS-induced JNK phosphorylation at 5 uM incubated for 1 hr by Western blot analysis; assay type: cell-based; settings: filed as antagonist
[15] = target: T2, Toll-like receptor 4 (Mus musculus); test: Antagonist activity at TLR4 signaling pathway in mouse BV-2 cells assessed as downregulation of LPS-induced IRF-3 phosphorylation at 5 uM incubated for 1 hr by Western blot analysis; assay type: cell-based; settings: filed as antagonist
[16] = tested on: Mus musculus; test: Inhibition of morphine-induced addiction behavior in Balb/c mouse assessed as decrease in morphine-induced behavioral sensitization during induction phase at 0.005 to 0.2 mg/kg,ip administrated on day 4 to 10 by open-field test; assay type: functional, organism-based; settings: dose 0.005-0.2 mg/kg, time 7.0 day
[17] = tested on: Mus musculus; test: Inhibition of morphine-induced addiction behavior in Balb/c mouse assessed as decrease in total distance traveled in field at 0.005 to 0.2 mg/kg,ip administrated on day 4 to 10 by open-field test; assay type: functional, organism-based; settings: dose 0.005-0.2 mg/kg, time 7.0 day
[18] = Toxicity in morphine-induced Balb/c mouse assessed body weight loss at 0.2 mg/kg,ip administrated for 1 week; assay type: organism-based; settings: in vivo, 168 h, time 1 weeks
[19] = Toxicity in morphine-induced Balb/c mouse assessed body weight loss at 0.2 mg/kg,ip administrated for 1 week and measured on day 15; assay type: organism-based; settings: in vivo, 360 h, time 15 day
[20] = tested on: Mus musculus; test: Inhibition of chronic morphine-induced microglia activation in Balb/c mouse assessed as reduction in Iba1 expression in nucleus accumbens region at 0.2 mg/kg,ip administrated for 6 consecutive days by immunofluorescence staining based analysis; assay type: functional, organism-based
[21] = tested on: Mus musculus; test: Inhibition of chronic morphine-induced microglia activation in Balb/c mouse assessed as reduction in TNF-alpha mRNA expression in brain medial prefrontal cortex region at 0.2 mg/kg,ip administrated for 6 consecutive days by qPCR analysis; assay type: functional, organism-based
[22] = tested on: Mus musculus; test: Inhibition of chronic morphine-induced microglia activation in Balb/c mouse assessed as reduction in TNF-alpha mRNA expression in brain ventral tegmental area region at 0.2 mg/kg,ip administrated for 6 consecutive days by qPCR analysis; assay type: functional, organism-based
[23] = tested on: Mus musculus; test: Inhibition of chronic morphine-induced microglia activation in Balb/c mouse assessed as reduction in microglia cell number in brain medial prefrontal cortex region at 0.2 mg/kg,ip administrated for 6 consecutive days by immunofluorescence staining based analysis; assay type: functional, organism-based
[24] = tested on: Mus musculus; test: Inhibition of chronic morphine-induced microglia activation in Balb/c mouse assessed as reduction in microglia cell number in brain ventral tegmental area region at 0.2 mg/kg,ip administrated for 6 consecutive days by immunofluorescence staining based analysis; assay type: functional, organism-based
[25] = tested on: Mus musculus; test: Inhibition of chronic morphine-induced microglia activation in Balb/c mouse assessed as reduction in microglia cell number in brain nucleus accumbens region at 0.2 mg/kg,ip administrated for 6 consecutive days by immunofluorescence staining based analysis; assay type: functional, organism-based

Structure (SMILES)	IC50 [1] [µM]	half-life [2] [h]	AUC(0-inf) [3] [ng·h/mL]	Cmax [4] [ng/mL]	Tmax [5] [h]	half-life [6] [h]	AUC(0-inf) [7] [ng·h/mL]	IC50 at 24 h [8] [µM]	Activity [9]	Activity [10]	Activity [11]	Activity [12]	Activity [13]	Activity [14]	Activity [15]	inhibition [16]	inhibition [17]	Activity [18]	Activity [19]	inhibition [20]	also measured
CN1CC[C@@]23c4c5ccc(O)c4O[C@@H]2C(=O)C=C[C@]3(O)[C@@H]1C5 (single isomer, unassigned)	1	2.2	71.8	51.5	1.2	8.9	295	13.7	Active	inactive	Active	Active	Active	Active	Active	Dose-Dependent Effect	inactive	Non-Toxic	Non-Toxic	Active	inhibition [21]: Active; inhibition [22]: Active; inhibition [23]: Active; inhibition [24]: Active; inhibition [25]: inactive
COc1ccc2c3c1O[C@@H]1C(=O)C=C[C@]4(O)[C@H](C2)N(C)CC[C@@]314 (single isomer, unassigned)	1.3	0.6	16.5	25	1.2	2.2	89.6	23.6	Active	inactive	Active	Active	Active	Active	Active	Dose-Dependent Effect	inactive	Non-Toxic	Non-Toxic	Active	inhibition [21]: Active; inhibition [22]: Active; inhibition [23]: Active; inhibition [24]: Active; inhibition [25]: inactive
